In patent US9932331B2, “Phenyl tetrahydroisoquinoline compound substituted with heteroaryl” (TAISHO PHARMACEUTICAL CO., LTD, priority 2014, dated 2018):
Structures can show the parent of a compound that is named as a salt.

Assays:
[1] = tested on: SD rat; assay: 32P-phosphate oral loading test using SD rat (phosphorus absorption inhibitory effect); type: in vivo; settings: Rattus norvegicus, 0.5 h, SD male rats, plasma radioactivity 30 minutes after 32P-phosphate solution, vs control group, read-out: Rate of inhibition of phosphate absorption; for inhibition in vivo at 3 mg/kg: oral dose 3 mg/kg
Protocol: Phosphorus Absorption Inhibitory Effect of the Compound of the Present Invention in ^32P-Phosphate Oral Loading Test Using SD Rat
8-week-old SD male rats (Japan SLC, Inc.) were used as laboratory animals. Each test compound was suspended or dissolved at a concentration of 0.2 mg/mL or 0.6 mg/mL in Japanese Pharmacopoeia water for injection (manufactured by Hikari Pharmaceutical Co., Ltd.) and orally administered to each rat at a dose of 5 ml/kg body weight. Japanese Pharmacopoeia water for injection was administered at the same dose as above to a control group. 5 minutes after the administration of the test compound or water for injection, a phosphate solution (1.3 mM NaH2PO4) containing 32P-phosphate (PerkinElmer Inc.) was administered thereto at a dose of 5 ml/kg. 30 minutes after the administration of the phosphate solution, blood was collected from the tail vein, and the blood sample was immediately mixed with EDTA-2K (manufactured by Dojindo Laboratories). Then, the mixture was centrifuged at 3000 rpm at 4° C. for 10 minutes to recover plasma.
The radioactivity in 100 μL of the plasma was measured using a liquid scintillation counter and used as a phosphate absorption count. The radioactivity in the plasma of the control group was used as a control, and the rate of inhibition of phosphate absorption was determined according to the following expression: Rate of inhibition of phosphate absorption (%)=(1−Phosphate absorption count of the test compound administration group/Phosphate absorption count of the control group)×100 (2) Results

[2] = biological target: T1, human NHE3 (Homo sapiens, UniProt P48764); assay: NHE3 inhibition test (recovery of intracellular pH in cell line stably expressing human NHE3); type: cell-based; settings: OK cells deficient in endogenous NHE stably expressing human NHE3; BCECF fluorescence, initial rate of pH recovery; read-out: human NHE3 inhibitory activity IC50
T1 sequence (P48764 26-834): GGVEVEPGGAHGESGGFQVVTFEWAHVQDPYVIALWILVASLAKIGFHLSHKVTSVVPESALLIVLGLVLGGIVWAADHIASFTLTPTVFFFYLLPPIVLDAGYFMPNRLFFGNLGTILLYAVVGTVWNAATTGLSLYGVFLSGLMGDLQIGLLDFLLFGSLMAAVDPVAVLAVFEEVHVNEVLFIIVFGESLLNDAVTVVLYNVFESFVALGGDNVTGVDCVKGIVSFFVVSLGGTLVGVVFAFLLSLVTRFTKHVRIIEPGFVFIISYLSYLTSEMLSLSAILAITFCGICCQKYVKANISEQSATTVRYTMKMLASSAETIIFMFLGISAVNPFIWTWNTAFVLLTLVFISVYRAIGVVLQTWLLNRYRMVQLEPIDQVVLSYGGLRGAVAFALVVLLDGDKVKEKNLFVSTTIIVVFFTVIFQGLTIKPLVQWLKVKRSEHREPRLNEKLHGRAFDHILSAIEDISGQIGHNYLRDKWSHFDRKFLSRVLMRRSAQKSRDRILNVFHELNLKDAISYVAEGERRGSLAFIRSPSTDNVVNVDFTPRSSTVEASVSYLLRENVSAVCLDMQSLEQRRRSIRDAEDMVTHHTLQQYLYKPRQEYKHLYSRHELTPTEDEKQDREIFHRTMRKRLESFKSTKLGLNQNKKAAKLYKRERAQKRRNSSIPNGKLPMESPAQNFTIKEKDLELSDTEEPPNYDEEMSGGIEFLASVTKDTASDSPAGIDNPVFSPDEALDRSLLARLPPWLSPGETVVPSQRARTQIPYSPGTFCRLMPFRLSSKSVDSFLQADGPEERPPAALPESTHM
In short: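 Opossum kidney cells lacking endogenous NHE, stably expressing human NHE3, loaded with BCECF-AM and acid-loaded by NH4Cl washout. Compound in Na-free buffer, then Na-containing buffer (pH 7.4) added; initial pH-recovery rate by BCECF fluorescence, IC50 versus no-compound recovery.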

SMILES | IC50 [2] | inhibition in vivo at 3 mg/kg [1] | inhibition in vivo at 1 mg/kg ([1]; oral dose 1 mg/kg)
CN1Cc2c(Cl)cc(Cl)cc2[C@H](c2cccc(-c3cn(CCOCCOCCOCCOCCNC(=O)Nc4ccc(NC(=O)NCCOCCOCCOCCOCCn5cc(-c6cccc([C@@H]7CN(C)Cc8c(Cl)cc(Cl)cc87)c6)nn5)cc4)nn3)c2)C1 [Example 7-45, 1,1′-Benzene-1,4-diylbis {3-[14-(4-{3-[(4S)-6,8-dichloro-2-methyl-1,2,3,4-tetrahydroisoquinolin-4-yl]phenyl}-1H-1,2,3-triazol-1-yl)-3,6,9,12-tetraoxatetradec-1-yl]urea}hydrochloride] | 5.7 nM | 29% | 
CN1Cc2c(Cl)cc(Cl)cc2[C@H](c2cccc(-c3cn(CCOCCOCCOCCOCCOCCNC(=O)Nc4ccc(NC(=O)NCCOCCOCCOCCOCCOCCn5cc(-c6cccc([C@@H]7CN(C)Cc8c(Cl)cc(Cl)cc87)c6)nn5)cc4)nn3)c2)C1 [Example 7-46, 1,1′-Benzene-1,4-diylbis {3-[17-(4-{3-[(4S)-6,8-dichloro-2-methyl-1,2,3,4-tetrahydroisoquinolin-4-yl]phenyl}-1H-1,2,3-triazol-1-yl)-3,6,9,12,15-pentaoxaheptadec-1-yl]urea}hydrochloride] | 10.9 nM | 23% | 
CN1Cc2c(Cl)cc(Cl)cc2[C@H](c2cccc(-c3cncc(NCCOCCOCCNC(=O)CCC(=O)NCCOCCOCCNc4cncc(-c5cccc([C@@H]6CN(C)Cc7c(Cl)cc(Cl)cc76)c5)n4)n3)c2)C1 [Example 8-6, N,N′-Bis[2-(2-{2-[(6-{3-[(4S)-6,8-dichloro-2-methyl-1,2,3,4-tetrahydroisoquinolin-4-yl]phenyl}pyrazin-2-yl)amino]ethoxy}ethoxy)ethyl]butanediamide pentahydrochloride] | 15.5 nM | 26% | 
CN1Cc2c(Cl)cc(Cl)cc2C(c2cccc(-c3cnnc(NCCOCCOCCNC(=O)C(O)C(O)C(=O)NCCOCCOCCNc4cc(-c5cccc(C6CN(C)Cc7c(Cl)cc(Cl)cc76)c5)cnn4)c3)c2)C1 [Example 8-14, (2R,3R)-N-[2-(2-{2-[(5-{3-[(4R)-6,8-Dichloro-2-methyl-1,2,3,4-tetrahydroisoquinolin-4-yl]phenyl}pyridazin-3-yl)amino]ethoxy}ethoxy)ethyl]-N′-[2-(2-{2-[(5-{3-[(4S)-6,8-dichloro-2-methyl-1,2,3,4-tetrahydroisoquinolin-4-yl]phenyl}pyridazin-3-yl)amino]ethoxy}ethoxy)ethyl]-2,3-dihydroxybutanamide tetrahydrochloride] | 9.1 nM |  | 46%
CN1Cc2c(Cl)cc(Cl)cc2[C@H](c2cccc(-c3cncc(NCCOCCOCCOCCNC(=O)[C@H](O)[C@@H](O)C(=O)NCCOCCOCCOCCNc4cncc(-c5cccc([C@@H]6CN(C)Cc7c(Cl)cc(Cl)cc76)c5)n4)n3)c2)C1 [Example 8-20, (2R,3R)-N,N′-Bis{2-[2-(2-{2-[(6-{3-[(4S)-6,8-dichloro-2-methyl-1,2,3,4-tetrahydroisoquinolin-4-yl]phenyl}pyrazin-2-yl)amino]ethoxy}ethoxy)ethoxy]ethyl}-2,3-dihydroxybutanediamide tetrahydrochloride] | 3.3 nM | 37% | 

More lines, main results first:

IC50 [2] | SMILES | inhibition in vivo at 3 mg/kg [1] | inhibition in vivo at 1 mg/kg ([1]; oral dose 1 mg/kg)
8.5 nM | CN1Cc2c(Cl)cc(Cl)cc2[C@H](c2cccc(-c3cn(CCOCCOCCOCCOCCNC(=O)NCCOCCOCCOCCOCCn4cc(-c5cccc([C@@H]6CN(C)Cc7c(Cl)cc(Cl)cc76)c5)nn4)nn3)c2)C1 [Example 7-43, 1,3-Bis[14-(4-{3-[(4S)-6,8-dichloro-2-methyl-1,2,3,4-tetrahydroisoquinolin-4-yl]phenyl}-1H-1,2,3-triazol-1-yl)-3,6,9,12-tetraoxatetradec-1-yl]urea hydrochloride] | 37% | 
6.2 nM | CN1Cc2c(Cl)cc(Cl)cc2[C@H](c2cccc(-c3cc(NCCOCCOCCNC(=O)[C@H](O)[C@@H](O)C(=O)NCCOCCOCCNc4cc(-c5cccc([C@@H]6CN(C)Cc7c(Cl)cc(Cl)cc76)c5)ncn4)ncn3)c2)C1 [Example 8-8, (2R,3R)-N,N′-Bis[2-(2-{2-[(6-{3-[(4S)-6,8-dichloro-2-methyl-1,2,3,4-tetrahydroisoquinolin-4-yl]phenyl}pyrimidin-4-yl)amino]ethoxy}ethoxy)ethyl]-2,3-dihydroxybutanediamide hydrochloride] | 39% | 
6.2 nM | CN1Cc2c(Cl)cc(Cl)cc2[C@H](c2cccc(-c3cc(NCCOCCOCCOCCNC(=O)CCC(=O)NCCOCCOCCOCCNc4cc(-c5cccc([C@@H]6CN(C)Cc7c(Cl)cc(Cl)cc76)c5)ncn4)ncn3)c2)C1 [Example 8-12, N,N′-Bis{2-[2-(2-{2-[(6-{3-[(4S)-6,8-dichloro-2-methyl-1,2,3,4-tetrahydroisoquinolin-4-yl]phenyl}pyrimidin-4-yl)amino]ethoxy}ethoxy)ethoxy]ethyl}butanediamide hydrochloride] | 6% | 
7.6 nM | CN1Cc2c(Cl)cc(Cl)cc2[C@H](c2cccc(-c3cc(OCCOCCOCCNC(=O)[C@H](O)[C@@H](O)C(=O)NCCOCCOCCOc4cc(-c5cccc([C@@H]6CN(C)Cc7c(Cl)cc(Cl)cc76)c5)ncn4)ncn3)c2)C1 [Example 8-16, (2R,3R)-N,N′-Bis[2-(2-{2-[(6-{3-[(4S)-6,8-dichloro-2-methyl-1,2,3,4-tetrahydroisoquinolin-4-yl]phenyl}pyrimidin-4-yl)oxy]ethoxy}ethoxy)ethyl]-2,3-dihydroxybutanediamide hydrochloride] | 31% | 
2.5 nM | CN1Cc2c(Cl)cc(Cl)cc2[C@H](c2cccc(-c3cc(OCCOCCOCCOCCNC(=O)[C@H](O)[C@@H](O)C(=O)NCCOCCOCCOCCOc4cc(-c5cccc([C@@H]6CN(C)Cc7c(Cl)cc(Cl)cc76)c5)ncn4)ncn3)c2)C1 [Example 8-17, (2R,3R)-N,N′-Bis{2-[2-(2-{2-[(6-{3-[(4S)-6,8-dichloro-2-methyl-1,2,3,4-tetrahydroisoquinolin-4-yl]phenyl}pyrimidin-4-yl)oxy]ethoxy}ethoxy)ethoxy]ethyl}-2,3-dihydroxybutanediamide hydrochloride] | 18% | 
10.7 nM | CN1Cc2c(Cl)cc(Cl)cc2[C@@H](c2cccc(-c3cc(OCCOCCOCCOCCNC(=O)COCC(=O)NCCOCCOCCOCCOc4cc(-c5cccc([C@@H]6CN(C)Cc7c(Cl)cc(Cl)cc76)c5)ncn4)ncn3)c2)C1 [Example 8-18, 1-[(6-{3-[(4R)-6,8-Dichloro-2-methyl-1,2,3,4-tetrahydroisoquinolin-4-yl]phenyl}pyrimidin-4-yl)oxy]-N-{2-[2-(2-{2-[(6-{3-[(4S)-6,8-dichloro-2-methyl-1,2,3,4-tetrahydroisoquinolin-4-yl]phenyl}pyrimidin-4-yl)oxy]ethoxy}ethoxy)ethoxy]ethyl}-13-oxo-3,6,9,15-tetraoxa-12-azaheptadecan-17-amide hydrochloride] | 27% | 
